# According to patent US20230279000A1, “PYRIDOPYRIMIDINE DERIVATIVES USEFUL IN MODULATION OF AHR SIGNALLING” (JAGUAHR THERAPEUTICS PTE LTD, priority 2020, published 2023):
# Where a name gives a salt, the structure may show the parent alone.
# Legend:
# AhR [1] = target: T1, AhR (Homo sapiens, UniProt P35869); assay: AhR antagonism in human PBMCs - inhibition of interleukin-22 (IL-22) release; type: cell-based; conditions: human PBMCs activated with CD3/CD28 agonist; IL-22 release after 72 hrs, against endogenously produced AhR agonists; arithmetic mean of two or more tests; read-out: PBMC Assay (pIC50) (converted)
# T1 construct: PBMCs were isolated from human peripheral blood using Lymphoprep; endogenous in cells
# T1 sequence (P35869 11-848): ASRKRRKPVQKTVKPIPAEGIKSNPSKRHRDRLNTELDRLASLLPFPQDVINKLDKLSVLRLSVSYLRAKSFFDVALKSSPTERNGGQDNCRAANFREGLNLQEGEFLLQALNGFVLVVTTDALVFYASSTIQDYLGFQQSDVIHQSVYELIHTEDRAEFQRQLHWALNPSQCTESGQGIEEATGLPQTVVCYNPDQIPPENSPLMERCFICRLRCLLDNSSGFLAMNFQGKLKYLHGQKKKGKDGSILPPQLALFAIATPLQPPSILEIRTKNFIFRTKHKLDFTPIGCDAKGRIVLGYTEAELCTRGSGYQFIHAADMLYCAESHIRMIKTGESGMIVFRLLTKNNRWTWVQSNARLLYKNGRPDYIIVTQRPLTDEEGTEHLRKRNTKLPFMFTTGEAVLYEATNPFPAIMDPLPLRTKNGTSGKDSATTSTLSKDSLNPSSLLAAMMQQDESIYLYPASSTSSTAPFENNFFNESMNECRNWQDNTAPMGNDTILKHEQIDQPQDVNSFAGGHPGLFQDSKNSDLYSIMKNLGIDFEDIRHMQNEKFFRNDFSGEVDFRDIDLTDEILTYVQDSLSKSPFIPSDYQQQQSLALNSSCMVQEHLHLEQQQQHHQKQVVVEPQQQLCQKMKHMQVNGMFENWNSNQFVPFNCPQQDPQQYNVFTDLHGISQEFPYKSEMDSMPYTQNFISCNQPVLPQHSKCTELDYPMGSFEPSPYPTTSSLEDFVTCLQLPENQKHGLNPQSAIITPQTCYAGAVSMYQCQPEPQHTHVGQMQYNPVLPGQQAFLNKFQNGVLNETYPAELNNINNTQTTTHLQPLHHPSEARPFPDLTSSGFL
# Protocol: (§1) Examples were tested in selected biological assays two or more times. Data are reported as the arithmetic mean of the pIC50 (-log10IC50) values, where IC50 is defined as the concentration of compound producing a 50% inhibition of the agonist response. In the case of the U937 assay, VAF347 was used as the agonist; in the peripheral blood mononuclear cell (PBMC) assay the effects of the test compounds are assessed against endogenously produced AhR agonists generated following PBMC activation.
# In Vitro Assay 2: AhR Antagonism in Human Peripheral Blood Mononuclear Cells (PBMCS) -Inhibition of Interleukin-22 (IL-22) Release
# PBMCs were isolated from human peripheral blood using Lymphoprep™ and diluted to 1 × 10^6 cells per ml in RPMI media containing 10% foetal bovine serum, 1% penicillin-streptomycin and 1% non-essential amino acids. PBMCs were subsequently activated with 1 µl per 100,000 cells of a CD3/CD28 agonist mixture (human T Cell TransAct™(Miltenyi Biotec)) and then plated at 100,000 cells per well in a round bottom 96 well tissue culture plate. One hour after stimulation seven concentrations of each test compound or vehicle (final [DMSO] 0.2%) were added. The plates were then placed in an incubator at 37° C., ≥ 85% humidity, 5% CO2 for 72 hrs before the media was removed and stored at -20° C. until cytokine analysis. IL-22 was measured using human IL-22 DuoSet ELISA (R&D systems) according to the manufacturer’s instructions.
# AhR [2] = target: T1, AhR; assay: AhR antagonism in U937 cells (Promega P450-Glo assay); type: cell-based; conditions: inhibition of 4.5 nM VAF347 agonist response, CYP1A1 activity (Luciferin-CEE) after 24 hrs, arithmetic mean of two or more tests, read-out: U937 Assay (pIC50) (converted)
# Protocol: as §1
# In Vitro Assay 1: AhR Antagonism in U937 Cells (Promega P450-Glo™ Assay)
# AhR antagonism was assessed in U937 cells (myeloid lineage cell line derived from a human histiocytic lymphoma). Ligand binds the AhR in the cytoplasm, and the AhR-ligand complex translocates to the nucleus and forms a heterodimer with AhR nuclear translocator (Arnt). This complex binds the xenobiotic response element (XRE) in the 5′ upstream region of the CYP1A1 promoter, enhancing CYP1A1 expression. CYP1A1 activity is subsequently determined by assessing the conversion of Luciferin-CEE to luciferin, which in turn reacts with luciferase to produce light. The amount of light produced is directly proportional to cytochrome P450 activity.
# U937 cells in Ultraculture serum free media (Lonza) were plated at 100,000 cells per well in a round bottom 96 well tissue culture plate. Seven concentrations of test compound (final [DMSO] 1%) were added and incubated for 10 minutes before the addition of 4.5 nM VAF347. The plates were then placed in an incubator at 37° C., ≥ 85% humidity, 5% CO2 for 24 hrs. After aspiration of the supernatant the CYP1A1 substrate Luciferin-CEE ([Final] 83 µM) was added and incubated for 3 hrs before the reaction was stopped by adding luciferin detection reagent and luminescence was read after 20 minutes.
structure (smiles),measurement,setting,value
"COc1ccc2c(CCNc3nc(-c4cncc(F)c4)nc4c3CCNC4)c[nH]c2c1 [Example 1, 2-(5-fluoropyridin-3-yl)-N-[2-(6-methoxy-1H-indol-3-yl)ethyl]-5H,6H,7H,8H-pyrido[3,4-d]pyrimidin-4-amine]",IC50,AhR [1],0.126 µM
same,IC50,AhR [2],0.126 µM
"COc1ccc2c(CCNc3nc(-c4cncc(F)c4)nc4c3CNC4)c[nH]c2c1 [Example 5, 2-(5-fluoropyridin-3-yl)-N-[2-(6-methoxy-1H-indol-3-yl)ethyl]-5H,6H,7H-pyrrolo[3,4-d]pyrimidin-4-amine]",IC50,AhR [1],0.398 µM
same,IC50,AhR [2],0.2 µM
"COc1cncc(-c2nc3c(c(NCCc4c[nH]c5ccccc45)n2)CCNC3)c1 [Example 9, N-[2-(1H-indol-3-yl)ethyl]-2-(5-methoxypyridin-3-yl)-5H,6H,7H,8H-pyrido[3,4-d]pyrimidin-4-amine]",IC50,AhR [1],0.794 µM
same,IC50,AhR [2],0.02 µM
"FC(F)(F)c1cncc(-c2nc3c(c(NCCc4c[nH]c5ccccc45)n2)CCNC3)c1 [Example 10, N-[2-(1H-indol-3-yl)ethyl]-2-[5-(trifluoromethyl)pyridin-3-yl]-5H,6H,7H,8H-pyrido[3,4-d]pyrimidin-4-amine]",IC50,AhR [1],0.794 µM
same,IC50,AhR [2],0.0251 µM
"COc1ccc2[nH]c(C)c(CCNc3nc(-c4cncc(F)c4)nc4c3CCNC4)c2c1 [Example 14, 2-(5-Fluoropyridin-3-yl)-4-{[2-(5-Methoxy-2-Methyl-1H-Indol-3-yl)Ethyl]Amino}-5H,6H,7H,8H-Pyrido[3,4-d]Pyrimidin-7-ium Chloride]",IC50,AhR [1],0.631 µM
same,IC50,AhR [2],0.1 µM
"CCN1CCc2nc(-c3cncc(F)c3)nc(NCCc3c[nH]c4cc(OC)ccc34)c2CC1 [Example 15, 7-ethyl-2-(5-fluoropyridin-3-yl)-N-[2-(6-methoxy-1H-indol-3-yl)ethyl]-5H,6H,7H,8H,9H-pyrimido[4,5-d]azepin-4-amine]",IC50,AhR [1],0.631 µM
same,IC50,AhR [2],0.158 µM
"COc1ccc2c(CCNc3nc(-c4cncc(F)c4)nc4c3CCNCC4)c[nH]c2c1 [Example 16, 2-(5-fluoropyridin-3-yl)-N-[2-(6-methoxy-1H-indol-3-yl)ethyl]-5H,6H,7H,8H,9H-pyrimido[4,5-d]azepin-4-amine]",IC50,AhR [1],0.2 µM
same,IC50,AhR [2],0.316 µM
"COc1ccc2c(CCOc3nc(-c4cncc(F)c4)nc4c3CCNC4)c[nH]c2c1 [Example 17, 3-(2-{[2-(5-Fluoropyridin-3-yl)-5H,6H,7H,8H-Pyrido[3,4-d]Pyrimidin-4-yl]Oxy}Ethyl)-6-Methoxy-1H-Indole Hydrochloride]",IC50,AhR [1],0.0251 µM
same,IC50,AhR [2],0.0501 µM
"Fc1cncc(-c2nc3c(c(NCCc4c(C(F)(F)F)[nH]c5ccccc45)n2)CCNC3)c1 [Example 18, 2-(5-Fluoropyridin-3-yl)-4-({2-[2-(Trifluoromethyl)-1H-Indol-3-yl]Ethyl}Amino)-5H,6H,7H,8H-Pyrido[3,4-d]Pyrimidin-7-ium Chloride]",IC50,AhR [1],0.316 µM
same,IC50,AhR [2],0.02 µM
